Earlier results in patent US8129131B2, “Pin1 as a marker for abnormal cell growth” (Beth Israel Deaconess Medical Center, priority 1999, dated 2012).

Tested on: Pin1 or its WW domain
Settings: pre-incubation with various peptide concentrations before mitotic extracts; concentration-dependent

Sequence of Pin1 or its WW domain (Q13526 1-39 limits assumed): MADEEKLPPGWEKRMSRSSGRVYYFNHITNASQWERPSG

phosphoprotein-binding activity of Pin1 or its WW domain: significantly reduced
Substance: WFYpSPRLKK [Pintide]
